Drawing on the SangsterLogP compilation, this text covers logP and logD for 79 compounds.

Data set [1] can be described thus: method code SF-AS, from DOI: 10.1248/cpb.17.2558.
Data set [2] is described as follows: method code SF-AS, from DOI: 10.1002/etc.5620181211.
Data set [3] can be described thus: method code SF-HPLC, from DOI: 10.1016/j.microc.2003.08.005.
Experiment in data set [4]: not given
This is another data set of the same source.

A short description of data set [5]: method code SF, from DOI: 10.1016/s0928-0987(00)00099-3, PMID: 10915965. As to conditions: pH 5.0.
Experiment in data set [6]: not given
This is another data set of the same source.

Experiment in data set [7]: not given
This is another data set of the same source.

Experiment in data set [8]: not given
The source holds these as a separate data set.

A short description of data set [9]: method code SF-GLC, from DOI: 10.1016/s0003-2670(00)84505-5.
Data set [10] can be described thus: from KURIHARA, Norio.; Fujita, Toshio. (1983). Composition of Partition Coefficients of Polychlorinated Hydrocarbons (Commemoration Issue Dedicated to Professor Yuzo Inouye on the Occasion of his ….
The nature of data set [11]: method code HPLC, from DOI: 10.1016/j.ejmech.2015.05.022, PMID: 26005028. The conditions noted are these: pH 7.1.
Experiment in data set [12]: not given
This is another data set of the same source.

Experiment in data set [13]: not given
The source holds these as a separate data set.

Experiment in data set [14]: not given
The source holds these as a separate data set.

A short description of data set [15]: method code SF, from DOI: 10.1016/0165-1218(78)90089-7, PMID: 362190.
The nature of data set [16]: method code SF, from Huang, Q.; Wang, L.; Han, S.; Wang, G.; Gao, H. (1993). Quantitative relation between molecular structures and the hydrophobic parameters of halogenated arenes. Chemical Journal of Chinese ….
A short description of data set [17]: method code SF-GLC, from DOI: 10.1002/etc.5620080910.
A short description of data set [18]: method code SF-AS, from DOI: 10.1016/0041-008x(67)90079-8.
Experiment in data set [19]: not given
This is another data set of the same source.

The nature of data set [20]: method code SF, from DOI: 10.1016/0006-2952(91)90449-f, PMID: 1930261. As to conditions: pH 2.0.
Data set [21] in a line: method code SF-HPLC, from DOI: 10.1016/0378-5173(84)90193-5. As to conditions: pH 4.0.
Experiment in data set [22]: not given
The source holds these as a separate data set.

Data set [23] in a line: method code SF-HPLC, from DOI: 10.1016/0045-6535(86)90532-1. As to conditions: pH 6.5.
Data set [24] can be described thus: method code SF-GLC, from DOI: 10.1016/0166-445x(88)90052-5.
Experiment in data set [25]: not given
The source holds these as a separate data set.

Experiment in data set [26]: not given
This is another data set of the same source.

Data set [27] can be described thus: from Wang, L.; Xu, L.; Xu, O.; Tian, L.; Zheng, Z. (1989). Simultaneous determination of partition coefficients and acid dissociation constants of some organic dibasic acids and diacidic bases in the ….
The nature of data set [28]: method code SF-AS, from DOI: 10.1016/0378-5173(80)90061-7.
Experiment in data set [29]: not given
The source holds these as a separate data set.

The conditions of data set [30]: pH 7.3.
Experiment in data set [31]: not given
This is another data set of the same source.

Data set [32] can be described thus: method code SF-AS, from DOI: 10.1111/j.2042-7158.1989.tb06480.x, PMID: 2570831. As to conditions: pH 7.4.
Experiment in data set [33]: not given
This is another data set of the same source.

Experiment in data set [34]: not given
The source holds these as a separate data set.

The nature of data set [35]: method code SF-AS, from DOI: 10.1016/s0021-9673(01)89384-5.
Experiment in data set [36]: not given
The source holds these as a separate data set.

Data set [37] is described as follows: method code SF-AS, from Lee, B.; Shin, J.; Lim, M.; Jang, T.; Park, J.; Kim, K.; Kang, W. (1997). Partition Property of 5-Nitrothiopyrimidine Nucleoside. Bull Korean Chem Soc, 18(7)734-736. As to conditions: pH 7.0.
Data set [38] is described as follows: method code SF-AS, from DOI: 10.1248/cpb.40.925.
A short description of data set [39]: method code SF-RC, from DOI: 10.1016/s0969-8051(01)00233-5, PMID: 11518650.

The term logP denotes the decadic logarithm of the partition coefficient of the neutral form, usually between octanol and water. For `COc1ccccc1`, the logP came out at 2.15.

Usually logD stands for lipophilicity at a set pH, counting ionised and neutral species. Consider `NS(=O)(=O)c1ccc(Cl)c(Cl)c1`, for which, in [1] (pH 2.0), the logD was determined as 1.44.

For the compound `C(=C\c1ccccn1)/c1ccccc1`, the logP in data set [2] was determined as 1.96.

`Oc1ccc(Cl)cc1` yielded a logP of 2.43.

In the case of `Cc1ccc2[nH]nnc2c1`, the logP in [3] was 1.89.

Compound `CCCCCCCCC(C)=O` gave a logP in data set [4] of 3.78.

On to `COP(=O)(OC)C(C)(O)P(=O)(OC)OC`, for which the logD in [5] is -1.39.

In the case of `Cc1c(-c2cnccn2)ssc1=S`, the lipophilicity (logP) in data set [6] was 2.79.

`Nc1c([N+](=O)[O-])ccc2ncccc12` showed a logP in data set [7] of 1.61.

As for `Nc1cc(Cl)ccc1Cl`, the logP in data set [8] stood at 2.62.

In the case of `COc1cc(Cl)c(Cl)c(Cl)c1O`, in data set [9], the log partition coefficient (logP) turned out to be 3.72.

Compound `Clc1ccc2[nH]nnc2c1` came in with a logP in data set [3] of 2.17.

The compound `ClC1=CC(Cl)C(Cl)C(Cl)C1` (centres undefined) registered a logP in data set [10] of 3.52.

In data set [11], `COC(=O)CBr` yielded a logD of 0.77.

As for `Oc1cc(Cl)ccc1Cl`, the logP in data set [12] came to 3.06.

Consider `Clc1ccncc1`, for which the lipophilicity (logP) in [13] stood at 1.37.

For `ClC1C(Cl)C(Cl)C(Cl)C(Cl)C1Cl` (centres undefined), the logP in data set [14] is 3.67.

The compound `O=[N+]([O-])c1nccn1CC(O)CCl` (centres undefined) had a logP in data set [15] of 0.15.

`Clc1ccc(Br)cc1` had a logP in data set [16] of 3.83.

The compound `O=[N+]([O-])c1cc(Cl)c(Cl)c(Cl)c1Cl` had a lipophilicity (logP) in [17] of 3.93.

Take `Clc1ccc(Cl)nc1`: the logP in [18] was found to be 2.4.

`CCCCCCNC(=O)CBr`: the logD in [11] was determined as 2.18.

For `C1CCCC1`, the logP in [4] is 2.8.

`Fc1ccccc1`: the logP in data set [19] was found to be 2.01.

On to `CN1C(=O)C(=O)C(=O)N(C)C1=O`, for which the logD in data set [20] is -0.57.

Take `Oc1cccc(F)c1`: the logP in data set [12] stood at 1.82.

The compound `CCCC(=O)n1c(=O)[nH]cc(F)c1=O` gave a logD in [21] of 0.67.

As for `O=C(O)c1ccccn1`, the logP in data set [22] was -1.

`CCCCNC(=S)NCCCC` displayed a logD in data set [23] of 2.75.

For `C1OC1C1CO1` (centres undefined), the lipophilicity (logP) in data set [24] was -0.28.

In the case of `CCOC(C)=O`, the logP in [25] was 0.53.

With `N#Cc1ccc([N+](=O)[O-])n1CCO`, the logP in data set [15] was determined as 0.6.

In data set [26], `Cc1ccc([N+](=O)[O-])cc1` registered a logP of 2.4.

With `O=C(O)CCC(=O)O`, the logP in data set [27] is -0.61.

In [18], `Clc1cc(Cl)c(Cl)nc1Cl` displayed a lipophilicity (logP) of 3.32.

In turn, `O=C1CCCO1` gave a lipophilicity (logP) in data set [28] of -0.31.

With `Oc1c(Cl)cc(Cl)c(Cl)c1Cl`, the logP in data set [9] came to 4.3.

In the case of `Nc1ccc(S(=O)(=O)NC(=O)c2ccccc2)cc1`, the logP in data set [29] was 1.46.

Consider `Nc1cccc(Cl)c1Cl`, for which the logP in [8] came to 2.51.

The compound `c1ccc(Oc2ccccc2)cc1` came in with a logP in data set [14] of 3.87.

`CCCCC1CO1` (centres undefined) came in with a logP in data set [24] of 1.95.

The compound `O=c1cc(CO)occ1O` displayed a logD in data set [30] of -0.64.

With `COC(=O)CCCO`, the logP in data set [28] was -0.06.

`Brc1ccccc1Br`: in data set [16], the logP stood at 4.07.

Take `CCN(CC)C(=O)SCc1ccc(Cl)cc1`: the logP in data set [31] worked out at 3.78.

In data set [32], `Nc1ncnc2[nH]cnc12` displayed a pH-dependent lipophilicity (logD) of -0.05.

`Nc1ccc([N+](=O)[O-])cn1` gave a logP in data set [7] of 0.65.

`O=[N+]([O-])c1ccccc1` gave a logP in [26] of 1.86.

In the case of `O=Cc1ccncc1`, the lipophilicity (logP) in [13] is 0.23.

`Nc1cccnc1Cl` registered a logP in data set [2] of 0.04.

`O=c1[nH]cnc2nc[nH]c12` came in with a lipophilicity (logP) in data set [33] of -0.96.

In turn, `Cc1cc(O)no1` gave a logP in data set [31] of 0.26.

In the case of `CCCCCBr`, the logP in data set [34] is 3.32.

On to `Cn1cccc(O)c1=O`, for which, in data set [30], the logD is -0.4.

`Cc1ccc(C)o1` gave a logP in data set [35] of 2.24.

In data set [36], `CCC(C)O` (centres undefined) had a logP of 0.81.

`COP(=O)(OC)C(C)(OC(C)=O)P(=O)(OC)OC`: in [5], the logD is -1.05.

Turning to `CCC#N`, the logP in data set [29] is 0.1.

Take `O=c1[nH]cc([N+](=O)[O-])c(=O)[nH]1`: in [37], the logD is -1.38.

With `CNc1ccc(S(N)(=O)=O)cc1`, the logD in data set [1] (pH 5.5) was found to be 0.08.

For the compound `NC(=O)c1cssc1=S`, in [6], the logP was 0.3.

Regarding `CC(=O)n1c(=O)[nH]cc(F)c1=O`, in data set [21], the logD is -0.34.

With `CCCCOC(C)=O`, in data set [25], the logP stood at 1.69.

Take `Cn1cnc2c(N)ncnc21`: the log distribution coefficient (logD) in data set [32] was -0.03.

In data set [38], `COC(=O)c1ccoc1` registered a log partition coefficient (logP) of 1.28.

The compound `COc1cc(NCc2ccc3nc(N)nc(N)c3c2C)cc(OC)c1OC` showed a logD in data set [33] (pH 13.0) of 2.55.

As for `O=[N+]([O-])c1c[nH]c(=S)[nH]c1=S`, in [37], the logD came to 0.52.

Turning to `CC(C)=O`, the logP in [19] is -0.17.

As for `CN1C(=O)NC(=O)C(=O)C1=O`, in [20], the logD was -1.04.

Consider `CN(C)CCF`, for which the lipophilicity (logP) in data set [39] is 0.36.

`C=CCCCCCC`: in data set [34], the logP stood at 4.72.

In data set [36], `CCCC(C)O` (centres undefined) gave a logP of 1.34.

Regarding `CCN(CC)CCF`, the logP in data set [39] amounted to 0.94.

As for `Cn1cccc1`, the logP in data set [38] stood at 1.15.

In turn, `Nc1cccc(C(=O)O)c1` returned a logP in data set [27] of 0.65.

With `O=[N+]([O-])c1c(Cl)cc(Cl)cc1Cl`, the logP in data set [17] was 3.69.

In [22], `On1ccccc1=S` gave a logP of 0.4.

Turning to `S=C1NCCN1`, the logD in [23] was -0.66.

`Cl[C@@H]1CCCC[C@@H]1Cl` came in with a logP in [10] of 3.18.
